Results taken from US20050245534A1, “Inhibitors of the 11-beta-hydroxysteroid dehydrogenase Type 1 enzyme” (priority 2004, published 2005).

Tests used:
Male CD-1 mice = assay: Mouse Dehydrocorticosterone Challenge Model, plasma corticosterone; type: in vivo
Experimental: Male CD-1 (18-22 g) mice (Charles River, Madison, Wis.) were group housed and allowed free access to food and water. Mice are brought into a quiet procedure room for acclimation the night before the study. Animals are dosed with vehicle or compound at various times (pretreatment period) before being challenged with 11-dehydrocorticosterone (Steraloids Inc., Newport, R.I.). Thirty minutes after challenge, the mice are euthanized with CO2 and blood samples (EDTA) are obtained by cardiac puncture and immediately placed on ice. Blood samples were then spun, the plasma was removed, and the samples frozen until further analysis was performed. Corticosterone levels were obtained by ELISA (American Laboratory Prod., Co., Windham, N.H.) or HPLC/mass spectroscopy.

[1] = test system: Male B6.VLep ob(-/-) (ob/ob) mice; assay: ob/ob Mouse Model of Type 2 Diabetes; type: in vivo; settings: three weeks
Experimental: Male B6.VLep^ob(−/−) (ob/ob) mice and their lean littermates (Jackson Laboratory, Bar Harbor, Me.) were group housed and allowed free access to food (Purina 5015) and water. Mice were 6-7 weeks old at the start of each study. On day 0, animals were weighed and postprandial glucose levels determined (Medisense Precision-X™ glucometer, Abbott Laboratories). […] Animals were weighed, and postprandial glucose measurements were taken weekly throughout the study. On the last day of the study, 16 hours post dose (unless otherwise noted) the mice were euthanized via CO2, and blood samples (EDTA) were taken by cardiac puncture and immediately placed on ice. Whole blood measurements for HbA1c were taken with hand held meters (A1c NOW, Metrika Inc., Sunnyvale Calif.). Blood samples were then spun and plasma was removed and frozen until further analysis. The plasma triglyceride levels were determined according to instructions by the manufacturer (Infinity kit, Sigma Diagnostics, St. Louis Mo.).

healthy volunteers = settings: seven days; cited from earlier work

Question: What does the source list for `CC(C(=O)NC1C2CC3CC1CC(O)(C3)C2)N1CCN(c2ccc(C(F)(F)F)cn2)CC1` (stereo not shown) [Compound F, N-[(E)-5-hydroxy-2-adamantyl]-2-{4-[5-(trifluoromethyl)pyridin-2-yl]piperazin-1-yl}propanamide]?
Answer: Plasma corticosterone levels (Male CD-1 mice; 30 mpk followed by 11-DHC, pretreatment period 0.5 hours): 1297 ± 121; Plasma corticosterone levels (Male CD-1 mice; 30 mpk followed by 11-DHC, pretreatment period 16 hours): 1402 ± 99; Plasma corticosterone levels (Male CD-1 mice; 100 mpk followed by 11-DHC, pretreatment period 0.5 hours): 742 ± 119; Plasma corticosterone levels (Male CD-1 mice; 100 mpk followed by 11-DHC, pretreatment period 16 hours): 1422 ± 129; % HbA1c ([1]; 30 mpk twice daily): 7.6 ± 0.6%; Glucose ([1]; 30 mpk twice daily): 295 ± 31 mg/dL; Triglycerides ([1]; 30 mpk twice daily): 255 ± 22 mg/dL; % HbA1c ([1]; 100 mpk twice daily): 6.4 ± 0.5%; Glucose ([1]; 100 mpk twice daily): 263 ± 21 mg/dL; Triglycerides ([1]; 100 mpk twice daily): 282 ± 36 mg/dL

Question: With `CC1(C)[C@@H](OC(=O)CCC(=O)O)CC[C@]2(C)[C@H]3C(=O)C=C4[C@@H]5C[C@@](C)(C(=O)O)CC[C@]5(C)CC[C@@]4(C)[C@]3(C)CC[C@@H]12` [carbenoxolone] as the compound, how does the “reduction of IOP” value (healthy volunteers) read?
Answer: The value was 17%.

Question: Which results are given for `C[C@]12CC(=O)[C@H]3[C@@H](CCC4=CC(=O)CC[C@@]43C)[C@@H]1CC[C@@H]2C(=O)CO` [Example 11-DHC, 11-dehydrocorticosterone, reference compound]?
Answer: Plasma corticosterone levels (Male CD-1 mice; 11-DHC challenge without compound, pretreatment period 0.5 hours): 1478 ± 180; Plasma corticosterone levels (Male CD-1 mice; 11-DHC challenge without compound, pretreatment period 16 hours): 1200 ± 86
